Laboratory results: US20200030259A1, “Antiestrogens and/or Aromatase Inhibitors for Use in Treating Obesity and Related Symptoms” (Repros Therapeutics Inc., priority 2016, published 2020)

Assays:
[1] = system: subjects in need of treatment for obesity; test: Treating obesity with an antiestrogen (Example 2); format: in vivo; settings: 5 mg to 100 mg daily or every other day for at least three months
Protocol: Subjects in need of treatment for obesity are administered an amount of an antiestrogen (e.g. trans-clomiphene or a salt or analogue thereof) in an amount effective to increase LH and FSH to therapeutic levels over a treatment period of sufficient duration to achieve the desired result, preferably for a period of at least 3 months during which an effective dose is administered daily or every other day. FSH and LH levels may be assessed prior to initiating treatment and then monitored through the course of treatment to ensure that therapeutic levels of the pituitary hormones are reached. By way of nonlimiting example, a subject with obesity is administered 5 mg to 100 mg trans-clomiphene daily or every other day for a treatment period of at least three months, preferably at least six months.

[2] = system: obese men with acquired hypogonadotropic hypogonadism; test: Phase 2 clinical trial: lean mass by dual energy X-ray Absorptiometry (DXA); format: in vivo, human; settings: placebo arm lost lean mass, FIG. 2A
From the text: (§1) FIGS. 2A and 2B illustrate lean mass (as a percentage of total mass in kilograms, measured by dual energy X-ray Absorptiometry (DXA)) and total testosterone levels at baseline and at the 3 month and 6 month time points in the subjects described at FIGS. 1A and 1B.
(§2) A randomized double blind placebo-controlled Phase 2 clinical study (duration=6 months) was initiated to study the effects of trans-clomiphene on testosterone, metabolic function, weight, body composition, measures of strength and quality of life assessments (made throughout the study) in obese men with acquired hypogonadotropic hypogonadism.
(§3) 50 adult male subjects are enrolled in the study with an average age of 43.3 (stdev 9.2), average BMI of 36.8 (stdev 3.2), average waist size of 46.9″ (stdev 4.1) and average body fat percentage of 38.1 (stdev 5.2). Average baseline testosterone levels in the subjects was 221.9 ng/dl (stdev 52.7), average estradiol level in the subjects was […] (stdev 14.8) and the average T:E ratio was 4.95 (stdev 1.7; normal range of T:E is 20-25). The top four reported baseline symptoms (by % of enrollees) were (i) fatigue/lack of energy (96%) (ii) depression, irritability, lack of focus (74%) (iii) poor libido (60%) and (iv) muscle weakness (48%). The subjects were provided a low calorie commercial diet for 6 months, gym membership for […] and access to a personal trainer for 6 months. […]

[3] = system: obese men with acquired hypogonadotropic hypogonadism; test: Phase 2 clinical trial: free and total (LCMS) testosterone; format: in vivo, human; settings: enclomiphene arms; FIG. 2B
From the text: as §1, §2, §3

[4] = system: obese men with acquired hypogonadotropic hypogonadism; test: Phase 2 clinical trial: morning testosterone; format: in vivo, human; settings: p<0.0001, FIG. 1B
Protocol: 50 adult male subjects are enrolled in the study with an average age of 43.3 (stdev 9.2), average BMI of 36.8 (stdev 3.2), average waist size of 46.9″ (stdev 4.1) and average body fat percentage of 38.1 (stdev 5.2). Average baseline testosterone levels in the subjects was 221.9 ng/dl (stdev 52.7), average estradiol level in the subjects was 48.1 μg/ml (stdev 14.8) and the average T:E ratio was 4.95 (stdev 1.7; normal range of T:E is 20-25). […] The subjects were provided a low calorie commercial diet for 6 months, gym membership for 15 month and access to a personal trainer for 6 months. Subjects were randomized to receive treatment with 12.5 mg enclomiphene/day, 25 mg enclomiphene/day or placebo via oral capsule over a three month period.

[5] = system: obese men with acquired hypogonadotropic hypogonadism; test: Phase 2 clinical trial: DISF-SR, IWQOL and SF-36 total scores; format: in vivo, human; settings: enclomiphene arms; 3 and 6 months; n=15 per group; FIG. 3
From the text: FIG. 3 illustrates percent improvement from baseline total score at the 3 month and 6 month time points in subjects described at FIGS. 1A and 1B (n=15 per group) in the DISF-SR (Derogatis Interview for Sexual Functioning), IWQOL (Impact of Weight on Quality of Life questionnaire) and SF-36 (Medical Outcomes Study Short Form).
as §2
50 adult male subjects are enrolled in the study with an average age of 43.3 (stdev 9.2), average BMI of 36.8 (stdev 3.2), average waist size of 46.9″ (stdev 4.1) and average body fat percentage of 38.1 (stdev 5.2). Average baseline testosterone levels in the subjects was 221.9 ng/dl (stdev 52.7), average estradiol level in the subjects was […] (stdev 14.8) and the average T:E ratio was 4.95 (stdev 1.7; normal range of T:E is 20-25). The top four reported baseline symptoms (by % of enrollees) were (i) fatigue/lack of energy (96%) (ii) depression, irritability, lack of focus (74%) (iii) poor libido (60%) and (iv) muscle weakness (48%). The subjects were provided a low calorie commercial diet for 6 months, gym membership for […] and access to a personal trainer for 6 months. Subjects were randomized to receive treatment with 12.5 mg enclomiphene/day, 25 mg enclomiphene/day or placebo via oral capsule over a […] period.

Q: `CCN(CC)CCOc1ccc(/C(=C(/Cl)c2ccccc2)c2ccccc2)cc1` [enclomiphene, trans-clomiphene] was tested. Which “symptoms of obesity during treatment” value [1] did it give?
A: reduction in one or more symptoms of obesity is observed

Q: What about the “lean mass (percentage of total mass, DXA) at six months” value ([2]; 12.5 mg enclomiphene arm) of the same compound?
A: gained lean mass

Q: What about the “lean mass (percentage of total mass, DXA) at six months” value ([2]; 25 mg enclomiphene arm) of the same compound?
A: gained lean mass

Q: And the “free testosterone, baseline to six month time point” value [3]?
A: increases

Q: And the “total (LCMS) testosterone, baseline to six month time point” value [3]?
A: increases

Q: And the “morning testosterone at six months” value ([4]; 12.5 mg enclomiphene/day oral capsule with weight loss regimen, baseline ~235 ng/dl)?
A: ~505 ng/dL

Q: What about the “morning testosterone at six months” value ([4]; 25 mg enclomiphene/day oral capsule with weight loss regimen, baseline ~285 ng/dl) of the same compound?
A: ~605 ng/dL

Q: What about the “percent improvement relative to baseline in DISF-SR total score” value [5] of the same compound?
A: statistically significant from baseline

Q: And the “percent improvement relative to baseline in IWQOL total score” value [5]?
A: statistically significant from baseline

Q: And the “percent improvement relative to baseline in SF-36 total score” value [5]?
A: statistically significant from baseline
